Counter-ions that a name gives are not always drawn.
Target: T1, LTA4H (Rattus norvegicus, UniProt P30349)
T1 construct: and in rat peritoneum in vivo; host or cells: rat peritoneum (in vivo, after oral dosing)
T1 sequence (P30349 1-611): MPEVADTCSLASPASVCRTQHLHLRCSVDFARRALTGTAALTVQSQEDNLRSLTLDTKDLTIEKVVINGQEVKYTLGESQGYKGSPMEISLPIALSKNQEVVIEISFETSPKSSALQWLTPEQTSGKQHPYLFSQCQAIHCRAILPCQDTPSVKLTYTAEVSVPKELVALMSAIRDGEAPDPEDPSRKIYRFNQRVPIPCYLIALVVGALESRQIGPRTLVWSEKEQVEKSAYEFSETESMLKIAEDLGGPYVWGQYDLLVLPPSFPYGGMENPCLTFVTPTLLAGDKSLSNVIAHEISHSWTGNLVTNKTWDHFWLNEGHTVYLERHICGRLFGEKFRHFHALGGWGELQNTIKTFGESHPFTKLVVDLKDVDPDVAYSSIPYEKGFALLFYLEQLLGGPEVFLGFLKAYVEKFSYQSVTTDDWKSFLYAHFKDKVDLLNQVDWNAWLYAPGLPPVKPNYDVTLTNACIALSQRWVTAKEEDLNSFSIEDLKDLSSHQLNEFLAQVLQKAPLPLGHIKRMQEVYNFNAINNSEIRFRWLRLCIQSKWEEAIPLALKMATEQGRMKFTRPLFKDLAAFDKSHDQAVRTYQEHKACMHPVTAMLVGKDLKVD
Experiment: not given
Settings: oral administration, rat peritoneum in vivo; cited from earlier work

Row | Compound | inhibition of ionophore-induced LTB4 production
1 | CN(CCCOc1ccc(Cc2ccccc2)cc1)CCC(=O)O.Cl [SC57461] | inhibition of ionophore-induced LTB4 production

System: colitis symptoms
Experiment: not given
Settings: eight weeks of treatment, primate model of spontaneous colitis; cited from earlier work

Row | Compound | colitis symptoms
2 | CN(CCCOc1ccc(Cc2ccccc2)cc1)CCC(=O)O.Cl [SC57461] | significantly improved colitis symptoms

Target: T2, LTA4H (Mus musculus, UniProt P24527)
T2 construct: host or cells: mouse blood (ex vivo, after oral dosing)
T2 sequence (P24527 1-611): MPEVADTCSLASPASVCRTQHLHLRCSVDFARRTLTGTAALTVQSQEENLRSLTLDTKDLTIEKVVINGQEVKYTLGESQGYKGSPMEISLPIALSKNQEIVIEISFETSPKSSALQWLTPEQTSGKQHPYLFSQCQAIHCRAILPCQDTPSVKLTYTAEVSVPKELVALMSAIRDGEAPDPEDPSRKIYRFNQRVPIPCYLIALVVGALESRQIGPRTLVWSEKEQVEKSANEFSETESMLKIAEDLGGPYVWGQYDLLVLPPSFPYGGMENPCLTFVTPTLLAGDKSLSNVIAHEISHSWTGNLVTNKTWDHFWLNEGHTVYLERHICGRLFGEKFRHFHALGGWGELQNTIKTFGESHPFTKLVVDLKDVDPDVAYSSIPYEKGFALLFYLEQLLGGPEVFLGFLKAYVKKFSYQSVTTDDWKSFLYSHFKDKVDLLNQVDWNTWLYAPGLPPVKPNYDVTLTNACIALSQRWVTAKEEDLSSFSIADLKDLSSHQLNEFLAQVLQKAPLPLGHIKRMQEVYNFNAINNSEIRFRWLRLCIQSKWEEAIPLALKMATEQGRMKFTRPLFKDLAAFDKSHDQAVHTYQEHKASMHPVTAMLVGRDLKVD
Experiment: not given
Settings: oral administration, mouse blood ex vivo; cited from earlier work

Row | Compound | inhibition of ionophore-induced LTB4 production
3 | CN(CCCOc1ccc(Cc2ccccc2)cc1)CCC(=O)O.Cl [SC57461] | inhibition of ionophore-induced LTB4 production

Target: T3, recombinant human LTA4 hydrolase (Homo sapiens, UniProt P09960)
T3 construct: A human LTA4 hydrolase full-length cDNA clone (NM_000895) was purchased from OriGene Technologies; own knowledge that pDEST17 adds an N-terminal 6xHis, consistent with the Ni-NTA purification) (N); made in house; host or cells: Escherichia coli BL21-AI
T3 sequence (P09960 1-611): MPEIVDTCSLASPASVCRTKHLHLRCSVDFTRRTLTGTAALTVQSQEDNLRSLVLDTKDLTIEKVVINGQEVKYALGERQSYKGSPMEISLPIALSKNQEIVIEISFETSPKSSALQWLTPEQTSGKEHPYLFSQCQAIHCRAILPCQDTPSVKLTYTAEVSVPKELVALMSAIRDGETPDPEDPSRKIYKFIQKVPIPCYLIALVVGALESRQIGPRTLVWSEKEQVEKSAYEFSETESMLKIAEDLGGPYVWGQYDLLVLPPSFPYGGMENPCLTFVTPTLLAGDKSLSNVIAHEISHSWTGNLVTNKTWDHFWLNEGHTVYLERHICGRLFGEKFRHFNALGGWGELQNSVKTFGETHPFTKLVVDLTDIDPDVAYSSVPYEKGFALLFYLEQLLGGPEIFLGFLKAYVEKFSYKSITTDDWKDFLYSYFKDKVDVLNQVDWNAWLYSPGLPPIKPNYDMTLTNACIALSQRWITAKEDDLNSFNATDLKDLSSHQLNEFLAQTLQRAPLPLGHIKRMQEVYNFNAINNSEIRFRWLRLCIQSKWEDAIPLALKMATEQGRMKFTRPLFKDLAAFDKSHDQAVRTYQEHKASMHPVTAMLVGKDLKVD
Experiment: In vitro assay testing inhibitory activity against purified recombinant human LTA4 hydrolase
Format: biochemical
Settings: LTB4 formation; table does not say which of the two described assays (enzyme or human whole blood)
Source text: (1) In vitro assay testing inhibitory activity against purified recombinant human LTA4 hydroase. A human LTA4 hydrolase full-length cDNA clone (NM_000895) was purchased from OriGene Technologies (Rockville, Md.). The gene was amplified by polmerase chain reaction and transferred via pDONR201 into the bacterial expression vector pDEST17 by recombination (both plasmids from Invitrogen, Carlsbad, Calif.). The resulting construct was transformed into Escherichia coli BL21-AI (Invitrogen), and expression was induced by chemical induction with arabinose. The recombinant enzyme was purified by chromatography on an FPLC system (Amersham Biosciences, Uppsala, Sweden) using immobilized metal affinity chromatography (Ni-NTA Superflow, Qiagen, Hilden, Germany) and anion exchange chromatography (MonoQ HR 10/10, Amersham Biosciences).
The compounds of the invention were incubated in a series of dilutions with 200 nM of recombinant enzyme in assay buffer (100 mM Tris-HCl, 100 mM NaCl, 5 mg/ml fatty-acid free BSA, 10% DMSO, pH 8.0) for 10 min at room temperature to allow binding between LTA4 hydrolase and the inhibitors. LTA4 was prepared by alkaline hydrolysis of LTA4 methyl ester (Biomol, Plymouth Meeting, Pa., or Cayman Chemicals, Ann Arbor, Mich.). A solution of 10 μg of the ester was dried under a nitrogen stream and redissolved in 60 μl of a solution of 80% acetone and 20% 0.25 M NaOH. After incubation for 40 min at room temperature the resulting approximately 500 μM tock of LTA4 was kept at −80° C. for no more than a few days prior to use.
Immediately before the assay, LTA4 was diluted to a concentration of 10 μM in assay buffer (without DMSO) and added to the reaction mixture to a final concentration of 2 μM to initiate the enzyme reaction. After incubation for 120 sec at room temperature, the reaction was stopped by adding 2 volumes of chilled quenching buffer, containing acetonitril with 1% acetic acid and 225 nM LTB4-d4 (Biomol). The samples were then kept at 4° C. overnight to complete protein precipitation and centrifuged for 15 min at 1800 g. LTB4 formed was measured by LC-MS/MS using LTB4-d4 as an internal standard and an external LTB4 standard (Biomol) as reference. Based on the amounts of LTB4 found at each inhibitor concentration, a dose-response curve was fitted to the data and an IC50 value was calculated.

Row | Compound | IC50 [µM]
4 | c1cnn(-c2ccc(OCCN3CCCCC3)cc2)c1 [Example 1, 1-[2-(4-Pyrazol-1-yl-phenoxy)-ethyl]-piperidine] | 5 to 20
5 | FC(F)(F)c1ccnn1-c1ccc(OCCN2CCCCC2)cc1 [Example 4, 1-{2-[4-(5-Trifluoromethyl-pyrazol-1-yl)-phenoxy]-ethyl}-piperidine] | 5 to 20
6 | c1ccn(-c2ccc(OC[C@H]3CCCN3)cc2)c1 [Example 7, 1-[4-((R)-1-Pyrrolidin-2-ylmethoxy)-phenyl]-1H-pyrrole hydrochloride] | < 5
7 | c1ccn(-c2ccc(OCCN3CCCCC3)cc2)c1 [Example 8, 1-[2-(4-Pyrrol-1-yl-phenoxy)-ethyl]-piperidine] | < 5
8 | Brc1cccn1-c1ccc(OCCN2CCCCC2)cc1 [Example 9, 1-{2-[4-(2-Bromo-pyrrol-1-yl)-phenoxy]-ethyl}-piperidine] | < 5
9 | O=Cc1cccn1-c1ccc(OCCN2CCCCC2)cc1 [Example 10, 1-[4-(2-Piperidin-1-yl-ethoxy)-phenyl]-1H-pyrrole-2-carbaldehyde] | < 5

The next lines start with the values.

Row | IC50 [µM] | Compound
10 | 5 to 20 | Cc1ccn(-c2ccc(OCCN3CCCCC3)cc2)n1 [Example 2, 1-{2-[4-(3-Methyl-pyrazol-1-yl)-phenoxy]-ethyl}-piperidine]
11 | < 5 | Cc1cc(C)n(-c2ccc(OCCN3CCCCC3)cc2)n1 [Example 3, 1-{2-[4-(3,5-Dimethyl-pyrazol-1-yl)-phenoxy]-ethyl}-piperidine]
12 | < 5 | Cc1cc(C(F)(F)F)n(-c2ccc(OCCN3CCCCC3)cc2)n1 [Example 5, 1-{2-[4-(3-Methyl-5-trifluoromethyl-pyrazol-1-yl)-phenoxy]-ethyl}-piperidine]
13 | 5 to 20 | Cc1c(C(F)F)cnn1-c1ccc(OCCN2CCCCC2)cc1 [Example 6, 1-{2-[4-(4-Difluoromethyl-5-methyl-pyrazol-1-yl)-phenoxy]-ethyl}-piperidine]
